Here are results for 5 compounds from patent publication US20090062206A1 (UNIVERSITY OF SOUTH FLORIDA, priority 2006, published 2009).

Read-outs that look alike come from different tables or passages of the source.

Series [1] concerns human renal carcinoma cells. Kind of series: DNA synthesis by bromodeoxyuridine (BrdU) incorporation into renal carcinoma cells. Type of series: cell-based. Conditions: 1 μM, incubated 24 hours. An excerpt: To investigate whether these peptide hormones were inhibiting DNA synthesis, bromodeoxyuridine (BrdU) incorporation into the renal carcinoma cells was utilized as previously described from our laboratory. BrdU was from BD Bioscience, San Jose, Calif.

For series [2] the following is noted: human or animal subjects; cited from earlier work.
In series [3] the test system is human renal-cell carcinoma cells (ATCC CRL-2175). Description: Decrease in number of human renal-cell carcinoma cells (cell counting on coverslips). The note with it: for number of renal carcinoma cells remaining per high powered field: control 89±7 cells. Type of series: cell-based. The protocol: A cell line (ATCC number CRL-2175) of human renal-cell carcinoma cells were purchased from American Type Culture Collection (ATCC, Manassas, Va.). This renal cancer cell line was established by A. Leibovitz in 1972 from a renal-cell carcinoma removed from a person with blood type O, Rh+.
Propagation of these renal cancer cells was in Leibovitz's L-15 medium supplemented with 10% fetal bovine serum (Atlanta Biologicals, Lawrenceville, Ga.) at a temperature of 37° C. in a CO2 free environment as recommended by the ATCC. Cells were dispensed in new flasks with subculturing two to three times per week.
After the renal-cell carcinoma cells were subcultured for 24 hours they were then seeded to coverslips in 24-well plates (Nunclon™, Roskilde, Denmark) with 1 mL of the above media. There were 65,000 cells seeded to each coverslip. After 24 hours, the well plates were washed twice with phosphate-buffered saline to remove the fetal bovine serum. Removal of serum was carried out to completely remove all variables (EGF, etc.) present in serum in order that interpretation of any data obtained would be straightforward. After 24 hours of serum deprivation, media volume was reduced to 250 μL per well with, or without, the respective peptide hormones in dose-response curves with concentrations up to and including 100 μM (1% of this volume). Human renal carcinoma cells were then incubated for various periods of time [24, 48, 72, and 96 hours]. The number of renal carcinoma cells were then counted with a cell counter (Thomas Scientific Swedesboro, N. J.) evaluating ten fields of the microscope slide at x40 along the X-axis with an Olympus BH-2 microscope (Atlanta, Ga.). This evaluation was repeated on six separate occasions with the number of renal carcinoma cells reflecting 60 observations for each group, i.e., 60 observations for controls and 60 observations for each of the six groups with respective peptide hormones. The peptide hormones used in this investigation were from Phoenix Pharmaceuticals, Inc., Belmont, Calif. In the Results section, the number of cancer cells reported is the number of cells in each individual field. Ten fields were examined on each microscope slide. The results of the ten fields were pooled and the average of the ten fields is illustrated in the Results section.
The number of renal carcinoma cells after 24 hours without the addition of any of the peptide hormones averaged 89±7 cells per high powered field when ten fields of the coverslip were evaluated at ×40 along the X-axis with an Olympus BH2 microscope. This evaluation was repeated on six separate occasions, with the above number reflecting 60 observations by two independent investigators of the control group and each of the five groups with the addition of one of the peptide hormones. The same number of observations were done in a seventh group where four of the peptides were added together (each at 1 μM) to determine if they may have an additive effect.

The test system of a further series is prostate adenocarcinoma. Conditions: 1 μM; cited from earlier work.
Series [4] has as its system small-cell lung cancer cells. Conditions: 1 μM; cited from earlier work.
In a further series the target is NPR-A receptor (Homo sapiens, UniProt P16066). Conditions: cited from earlier work.
The target of another series is NPR-C receptor (Homo sapiens, UniProt P17342). The note with it: cited from earlier work.
[5] abbreviates: 1 μM, at 48 hours after 24 hour exposure.
Where [6] appears, read: 1 μM, at 72 hours after 24 hour exposure.
Setting [7] is: 1 μM, at 96 hours after 24 hour exposure.
Setting [8] is: 10 μM, at 48 hours after 24 hour exposure.
Setting [9] is: 10 μM, at 72 hours after 24 hour exposure.
Setting [10] is: 10 μM, at 96 hours after 24 hour exposure.
The mark [11] stands for this setting: 100 μM, at 48 hours after 24 hour exposure.
Where [12] appears, read: 100 μM, at 72 hours after 24 hour exposure.
Setting [13] is: 100 μM, at 96 hours after 24 hour exposure.

Sequence of NPR-A receptor (P16066 33-1061): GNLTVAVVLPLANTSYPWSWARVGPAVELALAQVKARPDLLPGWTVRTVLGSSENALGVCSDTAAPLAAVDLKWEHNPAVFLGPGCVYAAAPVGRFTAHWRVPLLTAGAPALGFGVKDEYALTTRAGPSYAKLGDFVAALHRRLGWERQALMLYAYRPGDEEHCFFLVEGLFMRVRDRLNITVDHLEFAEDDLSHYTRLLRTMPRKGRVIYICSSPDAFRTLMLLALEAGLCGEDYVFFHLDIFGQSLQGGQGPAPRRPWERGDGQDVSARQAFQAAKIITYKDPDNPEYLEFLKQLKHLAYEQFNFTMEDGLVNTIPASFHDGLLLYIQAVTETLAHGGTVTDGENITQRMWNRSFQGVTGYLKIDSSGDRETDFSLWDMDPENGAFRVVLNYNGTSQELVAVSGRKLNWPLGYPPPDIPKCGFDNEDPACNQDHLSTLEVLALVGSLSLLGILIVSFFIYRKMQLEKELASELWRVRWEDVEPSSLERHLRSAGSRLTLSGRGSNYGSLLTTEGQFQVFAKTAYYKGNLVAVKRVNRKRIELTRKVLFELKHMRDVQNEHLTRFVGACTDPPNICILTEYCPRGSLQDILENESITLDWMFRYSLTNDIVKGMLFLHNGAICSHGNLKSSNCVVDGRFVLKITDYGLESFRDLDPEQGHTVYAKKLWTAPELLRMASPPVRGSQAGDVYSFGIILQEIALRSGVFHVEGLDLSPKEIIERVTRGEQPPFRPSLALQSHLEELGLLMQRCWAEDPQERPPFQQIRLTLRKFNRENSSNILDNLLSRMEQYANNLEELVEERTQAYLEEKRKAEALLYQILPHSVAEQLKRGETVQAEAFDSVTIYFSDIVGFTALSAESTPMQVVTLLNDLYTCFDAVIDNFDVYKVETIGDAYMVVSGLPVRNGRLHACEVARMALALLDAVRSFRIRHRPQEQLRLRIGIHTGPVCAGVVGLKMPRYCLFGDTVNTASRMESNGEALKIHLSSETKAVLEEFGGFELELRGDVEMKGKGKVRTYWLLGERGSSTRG
Sequence of NPR-C receptor (P17342 27-541): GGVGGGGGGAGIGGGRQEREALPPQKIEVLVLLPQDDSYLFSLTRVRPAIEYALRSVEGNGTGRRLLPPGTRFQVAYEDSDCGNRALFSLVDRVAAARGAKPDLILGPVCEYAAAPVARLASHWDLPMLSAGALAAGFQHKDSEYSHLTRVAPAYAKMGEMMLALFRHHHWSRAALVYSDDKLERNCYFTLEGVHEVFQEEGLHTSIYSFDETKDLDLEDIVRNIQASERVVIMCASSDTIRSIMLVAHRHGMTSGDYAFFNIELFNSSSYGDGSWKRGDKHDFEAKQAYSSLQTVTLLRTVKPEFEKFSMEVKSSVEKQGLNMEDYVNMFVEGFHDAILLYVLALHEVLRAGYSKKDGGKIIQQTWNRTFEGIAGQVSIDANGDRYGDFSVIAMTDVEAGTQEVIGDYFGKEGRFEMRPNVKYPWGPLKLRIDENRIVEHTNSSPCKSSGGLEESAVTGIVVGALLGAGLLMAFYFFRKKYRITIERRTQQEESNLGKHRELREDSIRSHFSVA

For “vessel dilator: peptide hormone within the 126 amino acid ANP prohormone synthesized in the heart (EVVPPQVLSEPNEEAGAALSPLPEVPPWTGEVSPAQR; Vessel dilator; UniProt P01160 56-92, looked up)”, in series [1], the “inhibition of DNA synthesis” value stood at 84%. For the same compound, in series [2], the side effect hypotension entry is listed as “never”. Further, the “decrease in number of renal carcinoma cells” value (“decrease in number” for short) in series [3] (1 μM, 24 hours) is listed as 59%; in series [3] (setting [5]), 55%; in series [3] (setting [6]) it was 51%; in series [3] (setting [7]), 43%; in series [3] (10 μM, 24 hours), 62%; in series [3] (setting [8]), 66%. Further, the “decrease in number” value in series [3] (setting [9]) was 64%; in series [3] (setting [10]), 55%; in series [3] (100 μM, 24 hours), 81%; in series [3] (setting [11]), 81%; in series [3] (setting [12]), 80%; in series [3] (setting [13]), 68%. In addition, the “number of renal carcinoma cells remaining per high powered field” value in series [3] (100 μM, 24 hours) stood at 17±4 cells.

As for “kaliuretic peptide: peptide hormone within the 126 amino acid ANP prohormone synthesized in the heart (SSDRSALLKSKLRALLTAPR; Kaliuretic peptide; UniProt P01160 104-123, looked up)”, the “inhibition of DNA synthesis” value in series [1] is recorded as 74%. Further, in series [2], the side effect hypotension result was “never”. The “decrease in cancer cell number” value (with prostate adenocarcinoma; in series [4]) was 30% throughout. For the same compound, the “decrease in number” value in series [3] (1 μM, 24 hours) is on record as 39%; in series [3] (setting [5]), 35%; in series [3] (setting [6]), 31%; in series [3] (setting [7]) it was 25%; in series [3] (10 μM, 24 hours) it was 54%; in series [3] (setting [8]) it was 52%. In addition, the “decrease in number” value in series [3] (setting [9]) came out at 47%; in series [3] (setting [10]) it was 40%; in series [3] (100 μM, 24 hours), 74%; in series [3] (setting [11]), 76%; in series [3] (setting [12]) it was 71%; in series [3] (setting [13]), 64%. In addition, in series [3] (100 μM, 24 hours), the “number of renal carcinoma cells remaining per high powered field” value was determined as 23±3 cells.

With “LANP: long acting natriuretic peptide, peptide hormone within the 126 amino acid ANP prohormone (NPMYNAVSNADLMDFKNLLDHLEEKMPLED; Long-acting natriuretic peptide; UniProt P01160 26-55, looked up)”, in series [1], the “inhibition of DNA synthesis” value is 70%. For the same compound, the side effect hypotension entry in series [2] is recorded as “never”. The “decrease in number” value is given as 30% in series [3] (setting [5]); 30% in series [3] (setting [6]); 24% in series [3] (setting [7]); 55% in series [3] (10 μM, 24 hours); 50% in series [3] (setting [8]); 47% in series [3] (setting [9]). Further, the “decrease in number” value was determined as 39% in series [3] (setting [10]); 70% in series [3] (100 μM, 24 hours); 70% in series [3] (setting [11]); 70% in series [3] (setting [12]); 61% in series [3] (setting [13]). The “number of renal carcinoma cells remaining per high powered field” value in series [3] (100 μM, 24 hours) worked out at 26±2 cells.

As to `CC[C@H](C)[C@@H]1NC(=O)[C@H](CCCNC(=N)N)NC(=O)[C@H](CC(=O)O)NC(=O)[C@H](CCSC)NC(=O)[C@H](CCCNC(=N)N)NC(=O)CNC(=O)CNC(=O)[C@H](Cc2ccccc2)NC(=O)[C@@H](NC(=O)[C@H](CO)NC(=O)[C@H](CO)NC(=O)[C@H](CCCNC(=N)N)NC(=O)[C@H](CCCNC(=N)N)NC(=O)[C@H](CC(C)C)NC(=O)[C@@H](N)CO)CSSC[C@@H](C(=O)N[C@@H](CC(N)=O)C(=O)N[C@@H](CO)C(=O)N[C@@H](Cc2ccccc2)C(=O)N[C@@H](CCCNC(=N)N)C(=O)N[C@@H](Cc2ccc(O)cc2)C(=O)O)NC(=O)CNC(=O)[C@H](CC(C)C)NC(=O)CNC(=O)[C@H](CO)NC(=O)[C@H](CCC(N)=O)NC(=O)[C@H](C)NC(=O)CNC1=O` [ANP], in series [1], the “inhibition of DNA synthesis” value is 77%. For the same compound, in series [2], the side effect hypotension entry is on record as “observed”.

For Urodilatin, the “binding curves compared with ANP” value at NPR-A receptor was “superimposable with ANP”; on NPR-A receptor (listed as urodilatin) it was “nearly superimposable binding curves”; at NPR-C receptor, “superimposable with ANP”; on NPR-C receptor (listed as urodilatin) it was “nearly superimposable binding curves”. Further, in series [1], the “inhibition of DNA synthesis” value is recorded as 65%. For the same compound, the “decrease in number” value is 24% in series [3] (1 μM, 24 hours); 17% in series [3] (setting [5]); 15% in series [3] (setting [6]); 10% in series [3] (setting [7]); 46% in series [3] (10 μM, 24 hours); 46% in series [3] (setting [8]). Moreover, the “decrease in number” value in series [3] (setting [9]) is given as 43%; in series [3] (setting [10]), 37%; in series [3] (100 μM, 24 hours), 66%; in series [3] (setting [11]), 65%; in series [3] (setting [12]) it was 64%; in series [3] (setting [13]), 58%. Further, the “number of renal carcinoma cells remaining per high powered field” value in series [3] (100 μM, 24 hours) amounted to 30±2 cells. The “cancer cells killed (maximum)” value in series [3] (within 24 hours, concentration not given) is “up to 81%”.
